Measured values: US4091213A, “7-Cyclizedamino-3-heterothiomethyl cephalosporin derivatives” (Bristol-Myers Company, priority 1977, dated 1978)

What was measured:
[1] = Paper chromatograms of rat urine following IM administration, antibiotically active metabolites; format: in vivo; conditions: urine 0-2 and 2-4 hours; for antibiotically active metabolites in urine (spots on paper chromatogram): system No. 9 (butyl acetate:n-butanol:glacial acetic acid:H2O)
Description: Paper chromatograms were run on rat urine collected between 0 and 2 and between 2 and 4 hours following IM administration of BL-S1057, 1058 and 643, for the detection of antibiotically active metabolites using descending chromatography with system No. 9 (butyl acetate:n-butanol:glacial acetic acid:H2 O = 80:15:40:24).

[2] = Paper strip chromatography; format: physicochemical; conditions: 37° C.; 0 and 1 hour; 0.2 mg./ml.
[3] = Liquid chromatography, hydrolysis in buffer; format: physicochemical; conditions: pH 6 buffer; 1 mg./ml.; 0 hours
Description: f. Liquid chromatography = 100% hydrolyzed in pH 6.1 buffer within 1 hour at room temperature (concentration = 1 mg./ml.)
d. Liquid chromatography (1 mg./ml. in pH 6 buffer)

Row | antibiotically active metabolites in urine (spots on paper chromatogram) [1] | hydrolysis of the derivatives to the parent compound (BL-S643) [1] | % Hydrolyzed (liquid chromatography) [3] | SMILES | Paper strip chromatography [2]
1 | A single, identical spot was observed |  |  | Cc1nnc(SCC2=C(C(=O)O)N3C(=O)C(NC(=O)[C@H](N)c4ccc(O)cc4)C3SC2)s1 (some centres unmarked) [BL-S643, reference compound] | 
2 | A single, identical spot was observed | complete hydrolysis |  | Cc1nnc(SCC2=C(C(=O)O)N3C(=O)C(N4C(=O)[C@@H](c5ccc(O)cc5)NC4c4ccco4)C3SC2)s1 (some centres unmarked) [BL-S1057] | Primarily 1 zone at Rf of BL-S643
3 | A single, identical spot was observed | complete hydrolysis | 25.4% | Cc1nnc(SCC2=C(C(=O)O)N3C(=O)C(N4C(=O)[C@@H](c5ccc(O)cc5)NC4c4ccc(S(=O)(=O)O)o4)C3SC2)s1 (some centres unmarked) [BL-S1058] | Primarily 1 zone at Rf of BL-S643 at 0 and 1 hour at 37 °C (concentration is 0.2 mg./ml.) There is evidence of a second zone
